Source: BindingDB's records for patent US9670191 (Nerviano Medical Sciences, 2017)

Molecular target: T1, Cell division cycle 7-related protein kinase [58-574]/Protein DBF4 homolog A (Homo sapiens, UniProt O00311)
T1 construct: 58-574
Experiment: Inhibition Assay of Cdc7 Activity
Procedure: The assay consists of the transfer of radioactivity labeled phosphate moiety by the kinase to an acceptor substrate. The resulting 33P-labeled product is separated from unreacted tracer, transferred into a scintillation cocktail and light emitted is measured in a scintillation counter. The inhibition assay of Cdc7/Dbf4 activity is performed according to the following protocol. The MCM2 substrate is trans-phosphorylated by the Cdc7/Dbf4 complex in the presence of ATP traced with γ33-ATP. The reaction is stopped by addition of Dowex resin in the presence of formic acid. Dowex resin particles capture unreacted γ33-ATP and drag it to the bottom of the well while 33P phosphorylated MCM2 substrate remains in solution. The supernatant is collected, transferred into Optiplate plates and the extent of substrate phosphorylation is evaluated by β counting. The inhibition assay of Cdc7/Dbf4 activity was performed in 96 wells plate according to the following protocol.

T1 sequence (O00311 58-574): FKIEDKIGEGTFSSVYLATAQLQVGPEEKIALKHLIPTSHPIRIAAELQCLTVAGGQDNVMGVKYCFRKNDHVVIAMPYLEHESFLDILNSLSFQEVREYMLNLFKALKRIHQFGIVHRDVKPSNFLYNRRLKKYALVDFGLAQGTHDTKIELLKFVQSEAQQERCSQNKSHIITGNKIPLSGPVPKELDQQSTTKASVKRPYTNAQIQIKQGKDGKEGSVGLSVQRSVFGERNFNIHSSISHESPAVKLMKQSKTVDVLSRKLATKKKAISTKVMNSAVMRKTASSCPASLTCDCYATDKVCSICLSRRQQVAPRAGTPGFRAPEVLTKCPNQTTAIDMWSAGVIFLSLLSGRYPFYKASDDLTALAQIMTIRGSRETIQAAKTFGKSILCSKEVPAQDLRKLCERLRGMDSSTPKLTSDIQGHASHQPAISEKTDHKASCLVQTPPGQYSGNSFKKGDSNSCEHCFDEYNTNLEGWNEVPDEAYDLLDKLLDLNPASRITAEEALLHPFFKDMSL
T1 sequence (Q9UBU7 whole entry, further chain): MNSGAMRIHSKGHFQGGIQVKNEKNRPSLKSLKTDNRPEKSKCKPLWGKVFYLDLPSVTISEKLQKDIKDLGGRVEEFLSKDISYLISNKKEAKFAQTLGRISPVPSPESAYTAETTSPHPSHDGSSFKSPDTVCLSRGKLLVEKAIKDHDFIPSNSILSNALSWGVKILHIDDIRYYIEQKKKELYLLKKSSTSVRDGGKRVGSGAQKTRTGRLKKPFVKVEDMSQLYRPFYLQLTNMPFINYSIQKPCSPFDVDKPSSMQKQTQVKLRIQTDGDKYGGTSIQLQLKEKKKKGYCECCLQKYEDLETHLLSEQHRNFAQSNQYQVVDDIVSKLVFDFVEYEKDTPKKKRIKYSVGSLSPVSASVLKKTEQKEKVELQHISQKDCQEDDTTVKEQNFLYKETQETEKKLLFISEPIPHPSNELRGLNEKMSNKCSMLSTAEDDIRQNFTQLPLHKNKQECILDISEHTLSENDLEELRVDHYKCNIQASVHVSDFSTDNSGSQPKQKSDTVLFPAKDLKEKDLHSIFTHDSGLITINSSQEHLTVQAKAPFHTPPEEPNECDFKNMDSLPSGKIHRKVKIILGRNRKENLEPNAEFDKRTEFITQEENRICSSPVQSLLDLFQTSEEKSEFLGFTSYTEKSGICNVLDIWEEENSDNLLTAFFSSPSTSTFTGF

IC50 [µM] | Structure (SMILES)
< 1 | NC(=O)c1cc(-c2ccncc2)[nH]c1-c1ccccc1[N+](=O)[O-] [US9670191, A13]
< 1 | NC(=O)c1cc(-c2ccncc2)[nH]c1-c1cccc([N+](=O)[O-])c1 [US9670191, A14]
< 1 | NC(=O)c1cc(-c2ccncc2)[nH]c1-c1ccc([N+](=O)[O-])cc1 [US9670191, A15]
< 1 | N#Cc1cccc(-c2[nH]c(-c3ccncc3)cc2C(N)=O)c1 [US9670191, A23]
< 1 | NC(=O)c1cc(-c2ccncc2)[nH]c1-c1ccncc1 [US9670191, C3]
< 1 | NC(=O)c1cc(-c2ccnc(N)n2)[nH]c1-c1cccc2ccccc12 [US9670191, F5]
< 1 | NC(=O)c1cc(-c2ccnc(N)n2)[nH]c1-c1ccc2ccccc2c1 [US9670191, F6]
< 1 | NC(=O)c1cc(-c2ccnc(N)n2)[nH]c1-c1cccs1 [US9670191, G2]
< 1 | NC(=O)c1cc(-c2ccnc(N)n2)[nH]c1-c1cc2ccccc2s1 [US9670191, G5]
< 1 | NC(=O)c1cc(-c2ccnc(N)n2)[nH]c1-c1csc2ccccc12 [US9670191, G6]
< 1 | NC(=O)c1cc(-c2ccnc(N)n2)[nH]c1-c1cc2ccccc2o1 [US9670191, G9]
< 1 | NC(=O)c1cc(-c2ccnc(N)n2)[nH]c1-c1ccccn1 [US9670191, G12]
< 1 | Cn1cc(-c2[nH]c(-c3ccnc(N)n3)cc2C(N)=O)c2ccccc21 [US9670191, G13]
< 1 | Cn1c(-c2[nH]c(-c3ccnc(N)n3)cc2C(N)=O)cc2ccccc21 [US9670191, G14]
< 1 | NC(=O)c1cc(-c2ccnc(N)n2)[nH]c1-c1ccc2sccc2c1 [US9670191, G15]
< 1 | CNC(=O)c1cc(-c2ccnc(N)n2)[nH]c1-c1ccccc1 [US9670191, M1]
< 1 | NC(=O)c1c(-c2ccccc2)[nH]c(-c2ccnc(N)n2)c1I [US9670191, N3]
< 1 | C=Cc1c(-c2ccnc(N)n2)[nH]c(-c2ccccc2)c1C(N)=O [US9670191, O1]
< 1 | NC(=O)c1c[nH]c(-c2ccncc2)c1 [US9670191, P1]
< 1 | NC(=O)c1cc(-c2ccncc2)[nH]c1C1CCCCC1 [US9670191, Q1]
< 1 | CC(C)(C)OC(=O)N1CCC(c2[nH]c(-c3ccncc3)cc2C(N)=O)CC1 [US9670191, Q2]
< 1 | NC(=O)c1cc(-c2ccncc2)[nH]c1C1CCNCC1 [US9670191, Q3]
< 1 | NC(=O)c1cc(-c2ccncc2)[nH]c1Br [US9670191, R1]
< 1 | NC(=O)c1cc(-c2ccnc(N)n2)sc1-c1ccccc1 [US9670191, S1]
< 1 | NC(=O)c1cc(-c2ccnc(N)n2)oc1-c1ccccc1 [US9670191, T1]
< 1 | NC(=O)c1cc(-c2nc(N)ncc2F)[nH]c1-c1ccccc1 [US9670191, V1]
< 1 | NC(=O)c1c(-c2ccccc2)[nH]c(-c2ccnc(N)n2)c1Cl [US9670191, Z1]
